Measurements published in US20100210567A1, “USE OF A TUFTSIN AS A THERAPEUTIC AGENT” (priority 2007, published 2010).
Residues, ends and D or L forms follow the SMILES beside them.

Tested on: drug-resistant Mycobacterium tuberculosis
Settings: peptide 10 micrograms per ml, seven days

C[C@@H](O)[C@H](N)C(=O)N[C@@H](CCCCN)C(=O)N1CCC[C@H]1C(=O)N[C@@H](CCCNC(=N)N)C(=O)O [Tuftsin, Thr-Lys-Pro-Arg-OH] (H-TKPR-OH)
% inhibition: 0.0%
